Assay results from publication PMC3064895 (Cancer Chemotherapy and Pharmacology, 2010).
Read-outs that look alike come from different tables or passages of the source.

Tests used:
[1] = Plasma pharmacokinetics at steady state of sorafenib; type: in vivo, patients with advanced cancer; details: for AUC, geometric mean (% CV): AUC(0–12), n = 14; for AUC, geometric mean (% CV) / AUCnorm, geometric mean (% CV) / C max, geometric mean (% CV) / C max,norm, geometric mean (% CV) / C trough, geometric mean (% CV) / C trough,norm, geometric mean (% CV) / t max, median (range): plasma, sorafenib 400 mg bid; for AUC ratio (90% CI) / C max ratio (90% CI) / C trough ratio (90% CI): ratio of day 1 of cycle 5 versus day 1 of cycle 2
[2] = cited from earlier work
[3] = QT/QTc interval on 12-lead Holter ECG; type: in vivo, patients with advanced cancer; details: 2 h post-dose; oral 400-mg single dose, positive control, 1 day before cycle 1
[4] = cited from earlier work; for Patients with declines to <50 LVEF(%): Hutson et al.; for Mean change in LVEF(%): study by Chu et al.

AUC, geometric mean (% CV) ([1]; Day 1 of cycle 2)	AUC, geometric mean (% CV) ([1]; Day 1 of cycle 5)	AUCnorm, geometric mean (% CV) ([1]; Day 1 of cycle 2)	C max, geometric mean (% CV) ([1]; Day 1 of cycle 2)	C max,norm, geometric mean (% CV) ([1]; Day 1 of cycle 2)	C trough, geometric mean (% CV) ([1]; Day 1 of cycle 2)	C trough,norm, geometric mean (% CV) ([1]; Day 1 of cycle 2)	t max, median (range) ([1]; Day 1 of cycle 2)	AUCnorm, geometric mean (% CV) ([1]; Day 1 of cycle 5)	C max, geometric mean (% CV) ([1]; Day 1 of cycle 5)	C max,norm, geometric mean (% CV) ([1]; Day 1 of cycle 5)	C trough, geometric mean (% CV) ([1]; Day 1 of cycle 5)	C trough,norm, geometric mean (% CV) ([1]; Day 1 of cycle 5)	t max, median (range) ([1]; Day 1 of cycle 5)	AUC ratio (90% CI) [1]	C max ratio (90% CI) [1]	C trough ratio (90% CI) [1]	Structure (SMILES)	other results
2.0 (59.1) mg h/L	1.1 (74.0) mg h/L	0.4 (62.8) kg h/L	0.2 (73.4) mg/L	0.1 (75.2) kg/L	0.2 (82.3) mg/L	<0.1 (85.0) kg/L	1.00 (0–12.00) h	0.2 (80.9) kg h/L	0.1 (75.5) mg/L	<0.1 (78.2) kg/L	0.1 (82.4) mg/L	<0.1 (84.8) kg/L	2.00 (0–12.00) h	0.57 (0.41–0.81)	0.51 (0.38–0.68)	0.52 (0.38–0.70)	NC(=O)c1cc(Oc2ccc(NC(=O)Nc3ccc(Cl)c(C(F)(F)F)c3)cc2)ccn1 [BAY 43-9007]	
8.5 (58.3) mg h/L	5.2 (98.7) mg h/L	1.4 (59.6) kg h/L	1.0 (66.8) mg/L	0.2 (70.2) kg/L	0.8 (81.1) mg/L	0.1 (85.9) kg/L	1.00 (0–12.00) h	0.9 (103.2) kg h/L	0.6 (96.9) mg/L	0.1 (100.7) kg/L	0.5 (109.4) mg/L	0.1 (111.5) kg/L	2.00 (0–8.12) h	0.61 (0.41–0.92)	0.58 (0.41–0.82)	0.54 (0.36–0.81)	CNC(=O)c1cc(Oc2ccc(NC(=O)Nc3ccc(Cl)c(C(F)(F)F)c3)cc2)cc[n+]1[O-] [BAY 67-3472]	
2.8 (92.3) mg h/L	1.4 (129.3) mg h/L	0.5 (91.4) kg h/L	0.3 (101.6) mg/L	0.1 (99.6) kg/L	0.3 (114.5) mg/L	0.1 (113.5) kg/L	2.00 (0–12.00) h	0.3 (128.1) kg h/L	0.2 (127.2) mg/L	<0.1 (123.6) kg/L	0.1 (127.8) mg/L	<0.1 (124.7) kg/L	2.00 (0–8.05) h	0.50 (0.28–0.89)	0.47 (0.28–0.80)	0.49 (0.29–0.83)	NC(=O)c1cc(Oc2ccc(NC(=O)Nc3ccc(Cl)c(C(F)(F)F)c3)cc2)cc[n+]1[O-] [BAY 68-7769]	
																	COc1c(N2C[C@@H]3CCCN[C@@H]3C2)c(F)cc2c(=O)c(C(=O)O)cn(C3CC3)c12 [Moxifloxacin]	Increase in QT/QTc interval [2]: 5 to 10 ms; Mean (SD) change from baseline in QT [3]: 5.7 (24.3) ms; Mean (SD) change from baseline in QTcB [3]: 4.4 (12.9) ms; Mean (SD) change from baseline in QTcF [3]: 4.9 (13.7) ms
																	CCN(CC)CCNC(=O)c1c(C)[nH]c(/C=C2\C(=O)Nc3ccc(F)cc32)c1C [sunitinib]	Patients with declines to <50 LVEF(%) ([4]; after 1 cycle (6 weeks)): 12%; Patients with declines to <50 LVEF(%) ([4]; after 1 year): 10%; Mean change in LVEF(%) ([4]; after 2 cycles): −2.2 LVEF(%); Patients with declines to <50 LVEF(%) ([4]; after 2 years): 5%; Mean change in LVEF(%) ([4]; after 4 cycles): −5.1 LVEF(%); Incidence of ≥10 LVEF(%) reduction ([4]; observational study by Schmidinger et al.): 14%
